Data from US4020076A, “Novel phosphoryloxy-thiazoles” (priority 1974, dated 1977).
Like-named read-outs stand apart in the source and are kept apart here.

What was measured:
Type in all cases: in vivo
[1] = system: Musca domestica; experiment: Topical application activity against Musca domestica; conditions: read-out: percent of mortality
Procedure: d. Activity against Musca domestica
This topical application test consisted of placing a microliter of an acetone solution of the test product on the dorsal thorax of Musca domestica after having been put to sleep with ether. The insects were held at 20° C and 50% relative humidity and were fed milk and water.

[2] = system: Ditylenchus Myceliophagus; experiment: Acaricide activity, Ditylenchus Myceliophagus; conditions: 24 h, 0.1 g/l, read-out: Percent of mortality after 24 hours
Procedure: In an apparatus containing 10 ml of an aqueous solution of the test product, 0.5 ml of water containing about 2000 acariens of Ditylenchus Myceliophagus were added thereto and the percent of mortality was determined by a binocular magnifying glass after 24 hours.

[3] = system: Sitophilus granarius; experiment: Topical application test against Sitophilus granarius; conditions: read-out: percent mortality
Procedure: c. Test against Sitophilus granarius
This topical application test comprised preparing the test compounds in acetone solution at concentrations of 5000, 500 and 50 mg of the active compound per liter and 0.2 μl of the solutions were applied to the ventral thorax of 50 Sitophilus granarius for each concentration.

[4] = system: Spodoptera littoralis; experiment: Ingestion test against Spodoptera littoralis caterpillars; conditions: po, ingestion, read-out: percent of mortality
Procedure: e. Activity against Spodoptera littoralis
This test was effected with Spodoptera littoralis caterpillars 1 to 1.5 cm long and an average of 10 days old. In this ingestion test, 4 ml of an acetone solution of the test products was placed on lettuce rings with an 8 mm diameter which were placed in closed plastic dishes with a 5 cm diameter. 15 caterpillars were placed in each dish and were held at 20° C and 50% relative humidity and were fed when the insects had eaten the treated lettuce ring.

[5] = system: Meloidogynes spec; experiment: Nematocidal activity against Meloidogynes spec (tomato root galls); conditions: 250 Kg/ha
Procedure: a. Activity against Meloidogynes spec
A volume of about 3 liters of dirt infested with Meloidogynes spec was placed in a plastic sack. Nematocidal treatments are considered effective to a depth of 30 cm, a volume of 3 liters of dirt corresponding to a surface area of 100 cm^ 2 or 10^-^6 ha (since 100 cm^ 2 × 30 cm = 3000 ml or 3 liters). Each volume of infested dirt received 100 ml of an aqueous suspension containing 0.250 g of the test product (corresponding to 250 Kg/ha) and the controls received only 100 ml of water. The plastic sacks containing the dirt were immediately sealed after the treatment and then agitated to obtain a good distribution of the product. Two weeks after the treatment, the sacks were opened and the dirt was used to plant 3 tomato plants of St. Pierre variety. The plants used were raised in the greenhouse with dirt sterilized with heat to obtain plants free of nematodes. Three plants were used for each test which was run 6 times for each treatment. Two months after planting the tomatoes were removed from the dirt and the efficacy was determined by counting the number of galls observed on the roots. A correlation between the population of Meloidogynes in the pot and the number of galls exists.

[6] = system: Leptinotarsa Decemlineata; experiment: Activity against Leptinotarsa Decemlineata larvae; conditions: for mortality at 500 µg/mL: 50 g/hl; for mortality at 1000 µg/mL: 100 g/hl
From the text: h. Activity againt Leptinotarsa Decemlineata
Eggplant leaves with about 40 cm^ 2 of surface area (10 × 4 cm) were cut out of untreated plants and were washed with water and dried before being immersed for 10 seconds in an acetone solution of the test product. After drying, the leaves were placed in a plastic ventilated dish and 10 larvae of Leptinotarsa Decemlineata in the fourth stage were placed thereon.

[7] = system: Blattella germanica; experiment: Topical application activity against Blattella germanica; conditions: read-out: percent of mortality
Procedure: b. Activity against Blattella germanica
This test was a topical application in which adult male Blattella germanica received 2 microliters of an acetone solution of the test products between the second and third pair of paws. After this treatment, the test insects were held in a dim light at 20° C and were fed. The results expressed as percent of mortality in Table II were read 24 and 48 hours and 5 days after the treatment.

[8] = system: Musca domestica larvae; experiment: Contact-ingestion test against Musca domestica larvae; conditions: read-out: percent of mortality
Procedure: g. Activity against Musca domestica larvae
This contact-ingestion test consisted of placing 2 ml of an acetone solution of different concentrations of the test product on 1 g of bran placed in a watch glass and the solvent was evaporated. The treated bran was placed in a plastic dish and was admixed with 2 ml of milk. 20 3 to 4 day old larvae of Musca domestica were added to the bran and were held at 20° C and 30% relative humidity and 3 tests were conducted for each concentration.

[9] = system: Drosophila melanogaster; experiment: Vapor activity against Drosophila melanogaster; conditions: inhaled or nasal, read-out: percentage of mortality
Procedure: a. Activity against Drosophila melanogaster
This test measures the vapor activity of the compounds and the less than 48 hours old insects were placed in a Petri dish with a 10 cm diameter connected by a tergal screen to a crystallizer of the same diameter in which the test compound in acetone solution is placed. The said solution is evaporated after the insects have been placed and 3 tests with 25 insects were run for each concentration. The results are expressed in Table I as a percentage of mortality after 1, 2, 4 and 6 hours.

[10] = 1 h, read-out: % of mortality after 1 H
[11] = 24 h, read-out: % of mortality after 24 H
[12] = 48 h, read-out: % of mortality after 48 H

`CCOc1nc(OP(=S)(OC)OC)c(C#N)s1` [Compound C, 2-ethoxy-4-dimethoxythiophosphoryloxy-5-cyano-thiazole] was tested, and the mortality at 500 ppm ([1]; 1 H, 500 ppm) was 100%, the mortality at 2500 ppm ([1]; 1 H, 2500 ppm) was 100% and the mortality at 5000 ppm ([1]; 1 H, 5000 ppm) was 100%. For the same molecule, the mortality at 500 ppm ([1]; 24 h) was 97%, the mortality at 2500 ppm ([1]; 24 h) was 100% and the mortality at 5000 ppm ([1]; 24 h) was 100%. The mortality at 100 µg/mL [2] was 66.8%, the mortality at 50 ppm ([3]; 4 H) was 0% and the mortality at 500 ppm ([3]; 4 H) was 0%. For the same molecule, the mortality at 5000 ppm ([3]; 4 H) was 100%, the mortality at 50 ppm ([3]; 24 H) was 0% and the mortality at 500 ppm ([3]; 24 H) was 54%. It also gave a mortality at 5000 ppm ([3]; 24 H) of 100%, a mortality at 50 ppm ([3]; 120 h, 5 Days) of 0% and a mortality at 500 ppm ([3]; 120 h, 5 Days) of 96%. The mortality at 5000 ppm ([3]; 120 h, 5 Days) was 100%, the mortality at 125 ppm ([4]; 1 H) was 0% and the mortality at 250 ppm ([4]; 1 H) was 0%. The mortality at 500 ppm ([4]; 1 H) was 0%, the mortality at 125 ppm ([4]; 24 H) was 70% and the mortality at 250 ppm ([4]; 24 H) was 80%. It also gave a mortality at 500 ppm ([4]; 24 H) of 100%, a mortality at 125 ppm ([4]; 48 H) of 70% and a mortality at 250 ppm ([4]; 48 H) of 80%. For the same molecule, the mortality at 500 ppm ([4]; 48 H) was 100%, the “Relative efficacity in % as compound to controls” value [5] was 67.4% and the “Number of galls per foot” value ([5]; control 44.4) was 32.77. For the same molecule, the “Total number of galls” value ([5]; control 222) was 295, the mortality at 500 µg/mL [6, 10] was 0% and the mortality at 1000 µg/mL [6, 10] was 0%. For the same molecule, the mortality at 500 µg/mL [6, 11] was 40%, the mortality at 1000 µg/mL [6, 11] was 100% and the mortality at 500 µg/mL [6, 12] was 40%. It also gave a mortality at 1000 µg/mL [6, 12] of 100%, a mortality at 312.5 ppm ([7]; 24 H) of 80% and a mortality at 625 ppm ([7]; 24 H) of 100%. For the same molecule, the mortality at 1250 ppm ([7]; 24 H) was 100%, the mortality at 312.5 ppm ([7]; 48 H) was 80% and the mortality at 625 ppm ([7]; 48 H) was 100%. It also gave a mortality at 1250 ppm ([7]; 48 H) of 100%, a mortality at 312.5 ppm ([7]; 120 h, 5 Days) of 80% and a mortality at 625 ppm ([7]; 120 h, 5 Days) of 100%. For the same molecule, the mortality at 1250 ppm ([7]; 120 h, 5 Days) was 100%, the mortality at 500 ppm ([8]; 48 H) was 43% and the mortality at 5000 ppm ([8]; 48 H) was 53%. The mortality at 500 ppm ([8]; 192 h, 8 Days) was 63%, the mortality at 5000 ppm ([8]; 192 h, 8 Days) was 73% and the mortality at 5 ppm ([9]; 1 H) was 98%. For the same molecule, the mortality at 50 ppm ([9]; 1 H) was 100%, the mortality at 500 ppm ([9]; 1 H) was 100% and the mortality at 5 ppm ([9]; 4 H) was 100%. It also gave a mortality at 50 ppm ([9]; 4 H) of 100%, a mortality at 500 ppm ([9]; 4 H) of 100% and a mortality at 5 ppm ([9]; 6 H) of 100%. The mortality at 50 ppm ([9]; 6 H) was 100% and the mortality at 500 ppm ([9]; 6 H) was 100%.
